Activity calls are given as the source filed them.
What was measured:
[1] = cytotoxicity in OV-90 ovarian cancer cells, dose response, PAX8 inhibitor project, cell-based, plate reader, dry powder, SA8 (AID 743149); type: functional
[2] = cytotoxicity in COV434 cells, dose response, cytotoxicity control for PAX8 inhibitor project, cell-based, plate reader, dry powder, SA7 (AID 743145); type: functional
CHO = assay: cytotoxicity in TLR9-MyD88 CHO cells, dose response, cytotoxicity control for TLR9-MyD88 binding inhibitor project, cell-based, luminescence (AID 588339); type: functional, hamster; conditions: Cricetulus griseus;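 further: CHO cells stably coexpressing TLR9 and MyD88 fusions from primary screen; compound exposure lasted 48 hours before viability readout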
Beta Lactamase = Beta Lactamase (Pseudomonas aeruginosa, UniProt Q932Y6); assay: beta-lactamase reporter inhibitor potency, dose response, artefact control for TLR9-MyD88 binding inhibitor project, BLA reporter cells, FRET fluorescence (AID 588341); type: cell-based;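 further: cell based assay in CHO-K1 cells stably expressing beta-lactamase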
Sequence of Beta Lactamase (Q932Y6 whole entry): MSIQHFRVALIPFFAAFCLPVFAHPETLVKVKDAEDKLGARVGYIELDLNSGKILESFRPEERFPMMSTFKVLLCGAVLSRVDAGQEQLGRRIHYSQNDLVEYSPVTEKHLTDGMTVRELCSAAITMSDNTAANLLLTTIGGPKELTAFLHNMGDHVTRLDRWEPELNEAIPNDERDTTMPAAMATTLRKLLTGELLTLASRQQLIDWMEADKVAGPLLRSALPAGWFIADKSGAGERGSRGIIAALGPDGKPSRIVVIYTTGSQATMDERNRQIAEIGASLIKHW

[3] = target: T1, Ubiquitin-conjugating enzyme E2 N (Homo sapiens, UniProt P61088); type: functional
T1 sequence (P61088 whole entry): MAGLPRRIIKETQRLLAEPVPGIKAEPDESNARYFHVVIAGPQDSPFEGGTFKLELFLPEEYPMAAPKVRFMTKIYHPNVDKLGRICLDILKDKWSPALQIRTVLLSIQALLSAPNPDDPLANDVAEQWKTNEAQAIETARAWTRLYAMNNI

[4] = IGROV1 ovarian cancer cell cytotoxicity, dose response, PAX8 inhibitor project, plate reader, dry powder samples (AID 743043); type: functional, cell-based; conditions: IGROV-1
[5] = target: T2, Microphthalmia-associated transcription factor (Homo sapiens, UniProt O75030); assay: TRPM1 promoter luciferase signal decrease, dose response, MITF inhibitor project, cell-based, SK-MEL-5, cherry-picked, set 3 (AID 493073); type: functional
T2 sequence (O75030 whole entry): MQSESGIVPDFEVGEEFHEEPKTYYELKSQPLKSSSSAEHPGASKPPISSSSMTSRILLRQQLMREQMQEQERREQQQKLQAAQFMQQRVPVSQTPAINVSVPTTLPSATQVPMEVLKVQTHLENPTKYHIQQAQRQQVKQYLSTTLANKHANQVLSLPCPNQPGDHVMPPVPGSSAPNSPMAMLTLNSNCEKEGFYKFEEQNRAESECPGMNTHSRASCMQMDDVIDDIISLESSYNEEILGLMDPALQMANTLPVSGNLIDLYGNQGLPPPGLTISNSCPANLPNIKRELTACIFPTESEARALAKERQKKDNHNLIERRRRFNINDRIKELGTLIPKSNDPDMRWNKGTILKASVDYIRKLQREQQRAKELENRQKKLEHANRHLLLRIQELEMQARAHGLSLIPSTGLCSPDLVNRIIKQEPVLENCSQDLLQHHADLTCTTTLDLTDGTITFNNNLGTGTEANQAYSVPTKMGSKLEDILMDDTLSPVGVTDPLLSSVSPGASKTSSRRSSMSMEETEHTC

[6] = target: T3, Replicative DNA helicase DnaB (Mycobacterium tuberculosis, UniProt P9WMR3); assay: DnaB intein splicing inhibitors, dose response, biochemical, cell-free fluorescence (AID 449749); type: functional
T3 sequence (P9WMR3 whole entry): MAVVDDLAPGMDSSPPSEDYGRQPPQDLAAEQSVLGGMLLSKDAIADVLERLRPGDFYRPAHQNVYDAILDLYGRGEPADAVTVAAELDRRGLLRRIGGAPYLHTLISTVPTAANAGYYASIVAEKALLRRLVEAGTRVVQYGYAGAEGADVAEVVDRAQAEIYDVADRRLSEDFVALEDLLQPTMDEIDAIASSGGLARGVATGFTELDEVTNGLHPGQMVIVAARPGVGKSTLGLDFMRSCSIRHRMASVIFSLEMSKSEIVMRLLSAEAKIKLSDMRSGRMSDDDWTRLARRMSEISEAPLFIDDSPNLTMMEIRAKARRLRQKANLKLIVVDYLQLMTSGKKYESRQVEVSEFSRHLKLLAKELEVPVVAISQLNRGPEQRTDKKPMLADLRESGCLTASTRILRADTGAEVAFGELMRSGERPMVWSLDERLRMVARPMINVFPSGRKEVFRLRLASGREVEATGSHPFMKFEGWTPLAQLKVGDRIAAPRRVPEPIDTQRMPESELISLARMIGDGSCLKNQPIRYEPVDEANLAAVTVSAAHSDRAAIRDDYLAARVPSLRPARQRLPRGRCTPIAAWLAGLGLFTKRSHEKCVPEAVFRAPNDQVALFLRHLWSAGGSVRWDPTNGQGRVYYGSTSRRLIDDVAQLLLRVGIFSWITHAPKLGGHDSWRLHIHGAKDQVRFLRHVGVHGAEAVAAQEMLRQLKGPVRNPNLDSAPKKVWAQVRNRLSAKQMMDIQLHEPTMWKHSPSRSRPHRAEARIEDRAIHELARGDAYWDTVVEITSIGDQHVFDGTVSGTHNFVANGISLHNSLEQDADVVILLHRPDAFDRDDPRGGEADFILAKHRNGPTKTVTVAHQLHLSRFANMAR

[7] = A2780 ovarian cancer cell cytotoxicity, dose response, cytotoxicity control, plate reader, dry powder samples (AID 743046); type: functional, cell-based
[8] = HepG2 cell cytotoxicity, dose response, cytotoxicity control for Shn3 inhibitor project, CellTiter-Glo, cherry-picked (AID 624134); type: functional, cell-based
[9] = control 3'UTR Renilla luciferase suppression, dose response, counter-screen for Shn3 inhibitor project, cell-based, Clone20-Shn3RL, cherry-picked (AID 624133); type: functional
[10] = IOSE-T80 ovarian epithelial cell cytotoxicity, dose response, cytotoxicity control for PAX8 inhibitor project, plate reader, dry powder samples (AID 743045); type: functional, cell-based
Protein RecA = target: T4, Protein RecA (Mycobacterium tuberculosis, UniProt P9WHJ3); assay: Fluorescence Cell-Free Homogeneous Dose Retest to Identify Inhibitors of RecA-Intein Splicing Activity. [Related pubchem assays (depositor defined):AID2097, AID2223, AID489010, AID492950]; type: functional
T4 sequence (P9WHJ3 whole entry): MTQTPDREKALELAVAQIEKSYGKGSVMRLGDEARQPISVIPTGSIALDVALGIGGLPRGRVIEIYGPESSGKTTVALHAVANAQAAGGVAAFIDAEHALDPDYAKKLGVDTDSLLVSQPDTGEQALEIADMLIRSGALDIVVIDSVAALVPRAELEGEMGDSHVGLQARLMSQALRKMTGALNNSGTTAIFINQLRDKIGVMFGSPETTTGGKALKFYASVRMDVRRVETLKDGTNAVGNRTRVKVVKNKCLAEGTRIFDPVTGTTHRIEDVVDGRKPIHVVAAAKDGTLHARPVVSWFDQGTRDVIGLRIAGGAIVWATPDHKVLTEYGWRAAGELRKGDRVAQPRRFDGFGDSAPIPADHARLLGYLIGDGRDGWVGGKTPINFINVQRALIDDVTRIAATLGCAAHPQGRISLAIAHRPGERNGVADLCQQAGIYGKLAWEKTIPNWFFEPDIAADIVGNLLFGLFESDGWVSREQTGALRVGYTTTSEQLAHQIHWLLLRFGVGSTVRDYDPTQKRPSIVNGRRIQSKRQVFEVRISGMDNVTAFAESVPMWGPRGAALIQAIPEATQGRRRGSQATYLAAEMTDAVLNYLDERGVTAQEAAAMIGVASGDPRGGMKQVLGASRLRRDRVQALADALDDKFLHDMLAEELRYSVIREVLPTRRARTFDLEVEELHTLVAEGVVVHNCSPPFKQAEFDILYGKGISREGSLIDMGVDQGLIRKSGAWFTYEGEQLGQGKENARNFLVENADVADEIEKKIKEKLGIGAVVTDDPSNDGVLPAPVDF

[11] = target: ATP-binding cassette sub-family B member 6 (Homo sapiens, UniProt Q9NP58); assay: ABCB6 transporter inhibitors, porphyrin accumulation, dose response, flow cytometry, K562-ABCB6 cells, cherry pick 02 (AID 624487); type: functional; conditions: read-out: EC50_MICROM
Sequence of ATP-binding cassette sub-family B member 6 (Q9NP58 whole entry): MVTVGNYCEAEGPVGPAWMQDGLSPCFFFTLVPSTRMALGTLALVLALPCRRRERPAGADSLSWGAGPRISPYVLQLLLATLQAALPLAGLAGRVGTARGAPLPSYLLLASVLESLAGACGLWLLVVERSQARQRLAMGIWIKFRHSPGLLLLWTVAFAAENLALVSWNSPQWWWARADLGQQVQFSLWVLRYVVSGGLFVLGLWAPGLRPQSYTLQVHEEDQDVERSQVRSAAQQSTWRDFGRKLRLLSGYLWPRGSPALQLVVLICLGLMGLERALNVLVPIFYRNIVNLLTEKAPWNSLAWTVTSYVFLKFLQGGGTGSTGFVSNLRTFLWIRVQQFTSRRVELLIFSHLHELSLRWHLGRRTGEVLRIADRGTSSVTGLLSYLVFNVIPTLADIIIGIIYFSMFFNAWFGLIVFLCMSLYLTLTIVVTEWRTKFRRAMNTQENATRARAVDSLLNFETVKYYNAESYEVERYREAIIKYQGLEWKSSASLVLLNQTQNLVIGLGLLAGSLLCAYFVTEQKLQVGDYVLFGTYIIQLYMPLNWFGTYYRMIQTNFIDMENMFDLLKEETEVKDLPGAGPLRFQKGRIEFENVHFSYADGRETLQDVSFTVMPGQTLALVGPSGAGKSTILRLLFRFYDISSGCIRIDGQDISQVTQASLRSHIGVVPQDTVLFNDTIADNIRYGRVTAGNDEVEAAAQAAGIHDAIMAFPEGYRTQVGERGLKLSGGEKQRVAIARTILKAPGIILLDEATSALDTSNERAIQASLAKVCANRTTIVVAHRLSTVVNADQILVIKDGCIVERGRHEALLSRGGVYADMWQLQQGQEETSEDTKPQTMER

[12] = NIH:OVCAR-3 ovarian cancer cell cytotoxicity, dose response, PAX8 inhibitor project, plate reader, dry powder samples (AID 743044); type: functional, cell-based
[13] = cytotoxicity dependent on PAX8, dose response, cell-based, plate reader, dry powder (AID 743049); type: functional
Bcl-2-related protein A1 = target: T5, Bcl-2-related protein A1 (Mus musculus, UniProt Q07440); type: functional;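 further: confirmatory dose–response counterscreen on Bfl-1, used to check hits from a UBC13 polyubiquitin inhibitor campaign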
T5 sequence (Q07440 whole entry): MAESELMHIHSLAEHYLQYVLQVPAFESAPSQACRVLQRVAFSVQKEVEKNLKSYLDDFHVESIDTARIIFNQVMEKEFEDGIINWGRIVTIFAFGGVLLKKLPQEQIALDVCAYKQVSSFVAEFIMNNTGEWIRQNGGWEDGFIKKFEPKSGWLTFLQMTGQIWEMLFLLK

[14] = target: T1, Ubiquitin-conjugating enzyme E2 N; type: functional; remark: listed apart in the source
[15] = cytotoxicity in COV362 ovarian cancer cells, dose response, cytotoxicity control for PAX8 inhibitor project, cell-based, plate reader, dry powder, SA12 (AID 743144); type: functional
[16] = Shn3 3'UTR reporter inhibitors, dose response, cell-based, Clone20 osteoblasts, firefly luciferase, cherry-picked (AID 624132); type: functional;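 further: firefly luciferase luminescence from reporter carrying the Shn3 3'UTR in osteoblasts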
Paired box protein Pax-8 = Paired box protein Pax-8 (Homo sapiens, UniProt Q06710); assay: inhibitors of PAX8-driven TPO luciferase reporter, dose response, RMG-I cells, cherry-pick (AID 687027); type: functional, cell-based;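 further: luciferase reporter driven by Pax8 target thyroperoxidase promoter measured by SteadyGlo luminescence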
Sequence of Paired box protein Pax-8 (Q06710 whole entry): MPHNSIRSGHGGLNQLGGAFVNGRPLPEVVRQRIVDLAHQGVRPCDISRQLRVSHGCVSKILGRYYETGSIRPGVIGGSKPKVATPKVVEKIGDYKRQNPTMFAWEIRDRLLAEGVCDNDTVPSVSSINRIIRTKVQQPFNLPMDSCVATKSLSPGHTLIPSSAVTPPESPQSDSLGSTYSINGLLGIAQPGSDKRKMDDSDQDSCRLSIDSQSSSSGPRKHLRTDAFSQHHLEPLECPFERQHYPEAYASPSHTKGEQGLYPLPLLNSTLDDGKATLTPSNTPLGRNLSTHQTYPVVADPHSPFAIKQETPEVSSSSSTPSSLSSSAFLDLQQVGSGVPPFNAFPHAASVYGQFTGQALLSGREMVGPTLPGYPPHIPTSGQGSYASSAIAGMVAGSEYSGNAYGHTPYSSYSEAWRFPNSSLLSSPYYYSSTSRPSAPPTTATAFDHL

[17] = cytotoxicity in OVCAR4 cells, dose response, cytotoxicity control for PAX8 inhibitor project, cell-based, plate reader, dry powder, SA11 (AID 743150); type: functional; conditions: OVCAR-4
[18] = non-specific cell cytotoxicity, dose response, cytotoxicity control for PAX8 inhibitor project, plate reader, dry powder samples (AID 743021); type: functional, cell-based
H4 [19] = assay: inhibitors of control reporter signal in H4 cells – cell-based, plate reader, dry powder samples, counter-screen for prion reporter project, dose response (AID 540255); type: functional; conditions: Homo sapiens
H4 [20] = assay: Inhibitors of Prion Protein 5' UTR mRNA Measured in Cell-Based System Using Plate Reader - 2078-01_Inhibitor_Dose_DryPowder_Activity. [Related pubchem assays (depositor defined):AID488894]; type: functional; conditions: Homo sapiens
[21] = target: Luciferin 4-monooxygenase (Photinus pyralis, UniProt P08659); assay: firefly luciferase enzyme inhibitors, dose response, biochemical, dry powder samples, plate reader (AID 588451)
Sequence of Luciferin 4-monooxygenase (P08659 whole entry): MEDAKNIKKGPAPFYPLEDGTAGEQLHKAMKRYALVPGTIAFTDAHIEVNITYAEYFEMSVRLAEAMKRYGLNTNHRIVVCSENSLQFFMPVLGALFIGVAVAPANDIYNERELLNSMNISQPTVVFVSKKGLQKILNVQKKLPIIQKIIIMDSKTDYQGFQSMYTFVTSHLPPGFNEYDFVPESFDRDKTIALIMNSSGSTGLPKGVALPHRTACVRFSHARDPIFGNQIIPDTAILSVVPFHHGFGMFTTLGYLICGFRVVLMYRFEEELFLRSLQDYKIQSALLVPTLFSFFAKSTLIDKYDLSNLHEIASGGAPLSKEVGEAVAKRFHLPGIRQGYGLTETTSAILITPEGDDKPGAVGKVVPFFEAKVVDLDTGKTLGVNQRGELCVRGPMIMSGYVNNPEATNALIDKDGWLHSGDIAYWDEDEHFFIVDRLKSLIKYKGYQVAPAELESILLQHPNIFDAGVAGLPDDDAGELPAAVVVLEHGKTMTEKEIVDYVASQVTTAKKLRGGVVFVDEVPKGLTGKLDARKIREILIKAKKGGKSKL

H4 [22] = assay: Amyloid Precursor 5' UTR neuroblastoma cell reporter line Measured in Cell-Based System Using Plate Reader - 2078-04_Inhibitor_Dose_DryPowder_Activity. [Related pubchem assays (depositor defined):AID488894]; type: functional; conditions: Homo sapiens
[23] = MC4R antagonists, dose response, counter-screen for LGR2 antagonist project, cell-based, plate reader, cherry pick (AID 743444); type: functional;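 further: transfected HEK 293 cells stimulated with alpha-MSH peptide; potency of inhibitors of the alpha-MSH evoked signal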
Jurkat = assay: antigen receptor-induced NF-kB inhibitors, dose response, Jurkat, luciferase reporter, luminescence, B- and T-cell (AID 489004); type: functional, cell-based; conditions: Homo sapiens;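 further: NF-kB luciferase reporter Jurkat cells stimulated with PMA plus ionomycin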
[24] = LGR2 antagonists, dose response, cell-based, HEK293, CRE-luciferase reporter, cherry pick, set 2 (AID 743343); type: functional;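 further: transfected cells were stimulated with diluted bursicon conditioned medium after compound addition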
[25] = cytotoxicity in HEK-293T NF-kB-Luc cells, dose response, cytotoxicity control for B/T-cell NF-kB inhibitor project, cell-based, uHTS hits (AID 489019); type: functional;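 further: IC50 reflects cytotoxicity as loss of cell viability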

For `CC(=O)Nc1ccc(NC(=O)c2nc(S(=O)(=O)Cc3ccccc3)ncc2Cl)cc1`, the AC50 [1] was 30 µM (active), the AC50 [2] was 12.7 µM (active) and the IC50 (CHO) was 6.31 µM (active). For the same molecule, the IC50 (Beta Lactamase) was 7.61 µM (active), the IC50 [3] was 10.9 µM (active) and the AC50 [4] was 15.8 µM (active). For the same molecule, the AC50 [5] was 12.8 µM (active), the AC50 [6] was 11.2 µM (active) and the AC50 [7] was 10.2 µM (active). The AC50 [8] was 28.6 µM (active), the AC50 [9] was 6.33 µM (active) and the AC50 [10] was 18.2 µM (active). The EC50 (Protein RecA) was 9.36 µM (active), the EC50 [11] was 8.72 µM (active) and the AC50 [12] was 15.3 µM (active). For the same molecule, the AC50 [13] was 17.6 µM (active), the IC50 (Bcl-2-related protein A1) was > 20 µM (inactive) and the IC50 [14] was > 20 µM (inactive). The AC50 [15] was 23.1 µM (active), the AC50 [16] was 773 nM (active) and the AC50 (Paired box protein Pax-8) was 9.86 µM (active). The AC50 [17] was 25.9 µM (active) and the AC50 [18] was 20.7 µM (active).

In the case of `Cc1cc(C(=O)COC(=O)c2ccccc2O)c(C)n1CC1CCCO1` (stereo unspecified), the AC50 (H4 [19]) is reported as 273 nM (active), the AC50 (H4 [20]) is reported as 17 nM (active) and the AC50 [21] is reported as 1.05 µM (active). For the same molecule, the AC50 (H4 [22]) was 5.98 nM (active), the AC50 [23] was 178 nM (active) and the IC50 (Jurkat) was 250 nM (active). The AC50 [24] was 178 nM (active) and the IC50 [25] was > 80 µM (inactive).

Source: ChEMBL document CHEMBL1201862, “PubChem BioAssay data set” (2004)
